{"source": "paper PMC10321483", "about": "(Chemical Science, 2023)", "key": {"BlaC": {"target": "T1, BlaC (Mycobacterium tuberculosis, UniProt P9WKD3)", "T1 construct": "made in house; host or cells: E. coli", "T1 sequence (P9WKD3 35-307)": "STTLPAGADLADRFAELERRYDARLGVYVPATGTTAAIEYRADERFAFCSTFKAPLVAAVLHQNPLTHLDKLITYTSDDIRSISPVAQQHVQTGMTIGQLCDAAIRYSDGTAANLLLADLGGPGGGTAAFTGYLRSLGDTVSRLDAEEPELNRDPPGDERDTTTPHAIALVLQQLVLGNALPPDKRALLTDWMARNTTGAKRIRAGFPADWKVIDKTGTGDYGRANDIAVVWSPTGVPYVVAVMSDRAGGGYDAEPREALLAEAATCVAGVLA", "assay": "BlaC fluorogenic inhibition assay with FC5 (dose-response)", "format": "biochemical", "settings": "for pIC50 BlaC: Table S5 HTS hits, 30 minute inhibitor pre-incubation, two independent repeats", "procedure": "Two types of controls were used. […] In control 2, the BlaC mixture was substituted with the assay buffer. This mixture was incubated for 30 minutes at room temperature without shaking. […] Data were analysed using ActivityBase (IDBS)."}, "LdtMt2 [1]": {"target": "T2, LdtMt2 (Mycobacterium tuberculosis, UniProt I6Y9J2)", "T2 sequence (I6Y9J2 56-408)": "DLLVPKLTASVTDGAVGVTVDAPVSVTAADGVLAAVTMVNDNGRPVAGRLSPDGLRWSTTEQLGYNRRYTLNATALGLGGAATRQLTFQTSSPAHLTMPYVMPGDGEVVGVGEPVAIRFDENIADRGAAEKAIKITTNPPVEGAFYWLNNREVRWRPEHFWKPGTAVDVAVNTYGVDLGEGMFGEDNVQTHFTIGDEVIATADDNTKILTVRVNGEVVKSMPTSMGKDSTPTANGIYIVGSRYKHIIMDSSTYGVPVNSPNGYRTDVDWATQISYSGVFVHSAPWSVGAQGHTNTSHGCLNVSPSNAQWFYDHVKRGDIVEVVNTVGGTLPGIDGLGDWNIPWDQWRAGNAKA", "assay": "biochemical", "format": "biochemical", "design": "made in house; host or cells: E. coli"}, "LdtMt2 [2]": {"target": "T2, LdtMt2", "assay": "biochemical", "format": "binding", "design": "made in house; host or cells: E. coli", "settings": "for Tm: melting point of LdtMt2 after pre-incubation with the compound: pH 7.5, in °C (unit assumed)", "procedure": "LdtMt2 (5 μM) was incubated with the inhibitor (500 μM) in assay buffer (50 mM tris pH 7.5) for 30 minutes at room temperature in 96-well white PCR plates (25 μL final volume, Starlab). SYPRO Orange (final concentration 6×, according to manufacturer's definition, Invitrogen) was then added and the plate was sealed using a transparent plastic film (Polyolefin StarSeal, Starlab). Fluorescence was monitored (with λex = 492 nm and λem = 610 nm) using a CFX96 Touch Real-Time PCR Detection System (Bio-Rad), while the temperature was increased from 20 to 95 °C in increments of 0.2 °C. Melting temperatures (Tms) were determined using the CFX Maestro Software (Bio-Rad)."}, "[3]": {"settings": "Table S3 tool compounds, 10 min incubation, 2.5 nM BlaC, 2.5 µM FC5, n=4, read-out: pIC50 BlaC (mean ± SD) (converted)"}, "[4]": {"settings": "Table S4 HTS validation, 30 minutes inhibitor pre-incubation, n=8, read-out: pIC50 BlaC (mean ± SD) (converted)"}, "[5]": {"settings": "Table S4 HTS validation, 30 minutes inhibitor pre-incubation, n=6, read-out: pIC50 LdtMt2 (mean ± SD) (converted)"}, "[6]": {"settings": "Table S3 tool compounds, 10 min incubation, 2.5 nM BlaC, 2.5 µM FC5, n=4"}}, "note": "Where “and” joins values, the source holds several entries; their conditions need not be identical. Identical values can stand only once. Like-named read-outs stand apart in the source and are kept apart here.", "data": [{"smiles": "C[C@@H](O)[C@H]1C(=O)N2C(C(=O)[O-])=C(SC3Cn4cnc[n+]4C3)[C@H](C)[C@H]12", "note": "(stereo partly shown) [Biapenem, reference compound]", "values": [{"measurement": "IC50", "setting": "BlaC; [3]", "result": 3090, "unit": "nM"}, {"measurement": "IC50", "setting": "BlaC; [4]", "result": 479, "unit": "nM"}, {"measurement": "IC50", "setting": "LdtMt2 [1]; [5]", "result": 2880, "unit": "nM"}, {"measurement": "IC50", "setting": "LdtMt2 [1]; pIC50 LdtMt2 (mean ± SD)", "result": 79400, "unit": "nM"}]}, {"smiles": "CO/N=C(\\C(=O)N[C@@H]1C(=O)N2C(C(=O)O)=C(COC(C)=O)CS[C@H]12)c1csc(N)n1", "note": "[Cefotaxime, reference compound]", "values": [{"measurement": "IC50", "setting": "BlaC; [3]", "result": "> 100000", "unit": "nM"}, {"measurement": "IC50", "setting": "LdtMt2 [1]; pIC50 LdtMt2 (mean ± SD)", "result": "> 100000", "unit": "nM"}]}, {"smiles": "C[C@@H](O)[C@H]1C(=O)N2C(C(=O)O)=C([C@H]3CCCO3)S[C@H]12", "note": "[Faropenem]", "values": [{"measurement": "IC50", "setting": "BlaC; [3]", "result": 447, "unit": "nM"}, {"measurement": "IC50", "setting": "BlaC; [4]", "result": 468, "unit": "nM"}]}, {"smiles": "CNC(C)C(=O)NC1CCN(c2ccc(N3CCCC3)cc2C#N)C1", "note": "(stereo not shown) [Compound 38]", "values": [{"measurement": "ΔTm: difference in melting point of LdtMt2 relative to unreacted LdtMt2 (43.8 °C)", "setting": "LdtMt2 [2]", "result": -1.0}, {"measurement": "Tm: melting point of LdtMt2 after pre-incubation with the compound", "setting": "LdtMt2 [2]", "result": "42.8 ± 0.00"}, {"measurement": "pIC50 BlaC", "setting": "BlaC", "result": "< 4.0"}, {"measurement": "LE (ligand efficiency)", "setting": "LdtMt2 [1]", "result": 0.45}]}, {"smiles": "O=[Se](O)c1ccccc1", "note": "[Benzeneseleninic acid, reference compound]", "values": [{"measurement": "IC50", "setting": "BlaC; [3]", "result": "> 100000", "unit": "nM"}, {"measurement": "IC50", "setting": "LdtMt2 [1]; [5]", "result": 3550, "unit": "nM"}, {"measurement": "IC50", "setting": "LdtMt2 [1]; pIC50 LdtMt2 (mean ± SD)", "result": 10000, "unit": "nM"}]}, {"smiles": "Cc1ccccc1NC(=O)C=CC(N)=O", "note": "[Compound 14]", "values": [{"measurement": "ΔTm: difference in melting point of LdtMt2 relative to unreacted LdtMt2 (43.8 °C)", "setting": "LdtMt2 [2]", "result": "+1.1"}, {"measurement": "Tm: melting point of LdtMt2 after pre-incubation with the compound", "setting": "LdtMt2 [2]", "result": "44.9 ± 0.09"}, {"measurement": "pIC50 BlaC", "setting": "BlaC", "result": "< 4.0"}, {"measurement": "LE (ligand efficiency)", "setting": "LdtMt2 [1]", "result": 0.75}]}, {"smiles": "N#Cn1c(N2CCSCC2)nc2ccccc21", "note": "[Compound 27]", "values": [{"measurement": "ΔTm: difference in melting point of LdtMt2 relative to unreacted LdtMt2 (43.8 °C)", "setting": "LdtMt2 [2]", "result": -1.3}, {"measurement": "Tm: melting point of LdtMt2 after pre-incubation with the compound", "setting": "LdtMt2 [2]", "result": "42.5 ± 0.09"}, {"measurement": "pIC50 BlaC", "setting": "BlaC", "result": "< 4.0"}, {"measurement": "LE (ligand efficiency)", "setting": "LdtMt2 [1]", "result": 0.66}]}, {"smiles": "C[C@@H](O)[C@H]1C(=O)N2C(C(=O)O)=C(S[C@@H]3CN[C@H](C(=O)N(C)C)C3)[C@H](C)[C@H]12", "note": "[Meropenem, reference compound]", "values": [{"measurement": "IC50", "setting": "BlaC; [3]", "result": 141, "unit": "nM"}, {"measurement": "IC50", "setting": "BlaC; [4]", "result": 40.7, "unit": "nM"}, {"measurement": "IC50", "setting": "LdtMt2 [1]; [5]", "result": 1350, "unit": "nM"}, {"measurement": "IC50", "setting": "LdtMt2 [1]; pIC50 LdtMt2 (mean ± SD)", "result": 10000, "unit": "nM"}]}, {"smiles": "Cc1ccc(C=CC(=O)N2CC(=O)Nc3ccccc32)o1", "note": "[Compound 10]", "values": [{"measurement": "LE (ligand efficiency)", "setting": "LdtMt2 [1]", "result": 0.54}]}, {"smiles": "Cc1onc(-c2c(F)cccc2Cl)c1C(=O)N[C@@H]1C(=O)N2[C@@H]1SC(C)(C)[C@@H]2C(=O)O", "note": "[Flucloxacillin, reference compound]", "values": [{"measurement": "IC50", "setting": "BlaC; [3]", "result": 135, "unit": "nM"}, {"measurement": "IC50", "setting": "BlaC; [4]", "result": 77.6, "unit": "nM"}, {"measurement": "IC50", "setting": "LdtMt2 [1]; [5]", "result": 1050, "unit": "nM"}, {"measurement": "IC50", "setting": "LdtMt2 [1]; pIC50 LdtMt2 (mean ± SD)", "result": 25100, "unit": "nM"}]}, {"smiles": "O=C(NC1CCNCC1)[C@@H]1CC[C@@H]2CN1C(=O)N2OS(=O)(=O)O", "note": "[Relebactam]", "values": [{"measurement": "IC50", "setting": "BlaC; [3]", "result": 33100, "unit": "nM"}, {"measurement": "IC50", "setting": "BlaC; [4]", "result": 3980, "unit": "nM"}, {"measurement": "IC50", "setting": "LdtMt2 [1]; pIC50 LdtMt2 (mean ± SD)", "result": "> 100000", "unit": "nM"}]}, {"smiles": "CCC(C)SSc1ncc[nH]1", "note": "(stereo not shown) [PX-12, reference compound]", "values": [{"measurement": "pIC50 BlaC (mean ± SD)", "setting": "BlaC; [6]", "result": "< 4.0"}, {"measurement": "pIC50 LdtMt2 (mean ± SD)", "setting": "LdtMt2 [1]", "result": "5.9 ± 0.01 and 6.09 ± 0.03"}]}, {"smiles": "CC(=N)N1CC[C@H](SC2=C(C(=O)O)N3C(=O)[C@H]([C@@H](C)O)[C@H]3C2)C1", "note": "[Panipenem, reference compound]", "values": [{"measurement": "IC50", "setting": "BlaC; [3]", "result": 166, "unit": "nM"}, {"measurement": "IC50", "setting": "BlaC; [4]", "result": 93.3, "unit": "nM"}, {"measurement": "IC50", "setting": "LdtMt2 [1]; [5]", "result": 1230, "unit": "nM"}, {"measurement": "IC50", "setting": "LdtMt2 [1]; pIC50 LdtMt2 (mean ± SD)", "result": 316, "unit": "nM"}]}, {"smiles": "CN(C)C(=S)SSC(=S)N(C)C", "note": "[Thiram, reference compound]", "values": [{"measurement": "IC50", "setting": "BlaC; [3]", "result": "> 100000", "unit": "nM"}, {"measurement": "IC50", "setting": "LdtMt2 [1]; [5]", "result": 170, "unit": "nM"}, {"measurement": "IC50", "setting": "LdtMt2 [1]; pIC50 LdtMt2 (mean ± SD)", "result": 158, "unit": "nM"}]}, {"smiles": "C[C@@H](O)[C@H]1C(=O)N2C(C(=O)O)=C(S[C@H]3CC[S@@+]([O-])C3)S[C@H]12", "note": "[Sulopenem, reference compound]", "values": [{"measurement": "pIC50 BlaC (mean ± SD)", "setting": "BlaC; [6]", "result": "6.60 ± 0.12"}, {"measurement": "pIC50 BlaC (mean ± SD)", "setting": "BlaC; Table S4 HTS validation, 30 minutes inhibitor pre-incubation, n=8", "result": "6.86 ± 0.02"}, {"measurement": "pIC50 LdtMt2 (mean ± SD)", "setting": "LdtMt2 [1]", "result": "6.2 ± 0.03"}, {"measurement": "pIC50 LdtMt2 (mean ± SD)", "setting": "LdtMt2 [1]; Table S4 HTS validation, 30 minutes inhibitor pre-incubation, n=6", "result": "6.35 ± 0.02"}]}, {"smiles": "N#Cn1c(N2CCOCC2)nc2ccccc21", "note": "[Compound 28]", "values": [{"measurement": "ΔTm: difference in melting point of LdtMt2 relative to unreacted LdtMt2 (43.8 °C)", "setting": "LdtMt2 [2]", "result": -1.5}, {"measurement": "Tm: melting point of LdtMt2 after pre-incubation with the compound", "setting": "LdtMt2 [2]", "result": "42.3 ± 0.09"}, {"measurement": "pIC50 BlaC", "setting": "BlaC", "result": "< 4.0"}, {"measurement": "LE (ligand efficiency)", "setting": "LdtMt2 [1]", "result": 0.66}]}, {"smiles": "O=C1C=CC(=O)N1", "note": "[Maleimide, reference compound]", "values": [{"measurement": "IC50", "setting": "BlaC; pIC50 BlaC (mean ± SD), Table S3 tool compounds, 10 min incubation, 2.5 nM BlaC, 2.5 µM FC5, n=4", "result": "> 100000", "unit": "nM"}, {"measurement": "IC50", "setting": "LdtMt2 [1]; pIC50 LdtMt2 (mean ± SD)", "result": "3980 nM and 2240 nM"}]}, {"smiles": "O=C(NNC(=O)[C@@H]1CC[C@@H]2CN1C(=O)N2OS(=O)(=O)O)[C@@H]1CCCNC1", "note": "[Zidebactam, reference compound]", "values": [{"measurement": "IC50", "setting": "BlaC; [3]", "result": 70800, "unit": "nM"}, {"measurement": "IC50", "setting": "BlaC; [4]", "result": 7240, "unit": "nM"}, {"measurement": "IC50", "setting": "LdtMt2 [1]; [5]", "result": 13200, "unit": "nM"}, {"measurement": "IC50", "setting": "LdtMt2 [1]; pIC50 LdtMt2 (mean ± SD)", "result": 100000, "unit": "nM"}]}, {"smiles": "O=c1c2ccccc2[se]n1-c1ccccc1", "note": "[Ebselen]", "values": [{"measurement": "IC50", "setting": "BlaC; [3]", "result": 1510, "unit": "nM"}, {"measurement": "IC50", "setting": "BlaC; [4]", "result": 302, "unit": "nM"}, {"measurement": "IC50", "setting": "LdtMt2 [1]; [5]", "result": 214, "unit": "nM"}]}]}
